In test [1] the target is T1, Nav1.5 (INa) (Homo sapiens, UniProt Q14524).
T1 construct: gene SCN5A
The experiment in a line: cell-based.

In test [2] the target is T2, Cav1.2 (ICa, ICaL) (Homo sapiens, UniProt Q13936).
T2 construct: gene CACNA1C
The experiment in a line: cell-based.

Molecules are shown by their SMILES.

T1 sequence (Q14524 whole entry): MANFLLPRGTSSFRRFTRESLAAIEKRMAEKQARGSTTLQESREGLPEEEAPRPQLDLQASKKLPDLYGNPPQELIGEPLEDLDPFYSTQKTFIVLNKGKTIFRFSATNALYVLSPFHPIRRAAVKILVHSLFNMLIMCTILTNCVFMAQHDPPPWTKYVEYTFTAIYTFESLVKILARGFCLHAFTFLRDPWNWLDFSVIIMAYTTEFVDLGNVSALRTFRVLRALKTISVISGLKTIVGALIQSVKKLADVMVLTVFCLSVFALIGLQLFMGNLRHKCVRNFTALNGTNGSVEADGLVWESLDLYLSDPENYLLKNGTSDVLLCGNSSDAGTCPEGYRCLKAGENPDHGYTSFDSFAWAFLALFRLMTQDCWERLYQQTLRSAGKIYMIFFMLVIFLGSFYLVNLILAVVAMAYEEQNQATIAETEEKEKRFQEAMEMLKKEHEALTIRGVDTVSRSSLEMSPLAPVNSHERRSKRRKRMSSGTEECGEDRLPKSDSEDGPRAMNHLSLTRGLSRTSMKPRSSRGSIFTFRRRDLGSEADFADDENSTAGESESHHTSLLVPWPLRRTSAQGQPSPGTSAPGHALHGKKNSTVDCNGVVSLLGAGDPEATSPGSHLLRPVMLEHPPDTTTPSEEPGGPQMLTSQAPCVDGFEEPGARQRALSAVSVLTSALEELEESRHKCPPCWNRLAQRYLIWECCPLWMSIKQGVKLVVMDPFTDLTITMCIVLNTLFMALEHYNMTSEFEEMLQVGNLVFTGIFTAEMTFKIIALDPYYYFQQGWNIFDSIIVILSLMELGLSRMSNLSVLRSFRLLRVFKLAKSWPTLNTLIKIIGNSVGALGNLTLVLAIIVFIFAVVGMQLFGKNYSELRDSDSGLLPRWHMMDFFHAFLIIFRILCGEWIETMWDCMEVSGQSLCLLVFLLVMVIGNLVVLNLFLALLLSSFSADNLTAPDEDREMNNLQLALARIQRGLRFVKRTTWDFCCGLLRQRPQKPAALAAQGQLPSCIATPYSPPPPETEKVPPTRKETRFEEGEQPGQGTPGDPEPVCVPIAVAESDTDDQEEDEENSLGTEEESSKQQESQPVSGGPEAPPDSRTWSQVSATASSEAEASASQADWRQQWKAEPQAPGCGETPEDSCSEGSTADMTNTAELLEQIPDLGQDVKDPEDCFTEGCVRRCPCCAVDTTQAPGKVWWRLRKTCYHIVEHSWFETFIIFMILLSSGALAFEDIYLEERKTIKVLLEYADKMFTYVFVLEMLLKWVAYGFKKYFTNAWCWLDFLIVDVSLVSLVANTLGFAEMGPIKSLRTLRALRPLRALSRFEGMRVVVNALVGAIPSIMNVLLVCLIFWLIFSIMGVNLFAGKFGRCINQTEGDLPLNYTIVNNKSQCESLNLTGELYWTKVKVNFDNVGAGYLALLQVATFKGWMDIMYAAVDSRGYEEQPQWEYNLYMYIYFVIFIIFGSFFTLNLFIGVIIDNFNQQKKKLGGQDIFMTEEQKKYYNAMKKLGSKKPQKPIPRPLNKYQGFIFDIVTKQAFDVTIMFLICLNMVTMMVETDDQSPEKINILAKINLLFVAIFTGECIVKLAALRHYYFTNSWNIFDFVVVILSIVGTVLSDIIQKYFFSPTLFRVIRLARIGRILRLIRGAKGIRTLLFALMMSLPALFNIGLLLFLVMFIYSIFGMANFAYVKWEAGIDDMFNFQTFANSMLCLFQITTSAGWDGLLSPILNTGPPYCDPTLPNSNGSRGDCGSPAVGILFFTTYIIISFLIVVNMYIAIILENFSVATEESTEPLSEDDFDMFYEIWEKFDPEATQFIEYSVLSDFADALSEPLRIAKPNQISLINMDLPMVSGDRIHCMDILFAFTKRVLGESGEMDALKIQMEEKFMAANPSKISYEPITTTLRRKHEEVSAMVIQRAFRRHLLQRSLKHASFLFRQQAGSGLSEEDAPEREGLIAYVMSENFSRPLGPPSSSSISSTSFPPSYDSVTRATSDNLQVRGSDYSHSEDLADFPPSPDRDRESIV
T2 sequence (Q13936 whole entry): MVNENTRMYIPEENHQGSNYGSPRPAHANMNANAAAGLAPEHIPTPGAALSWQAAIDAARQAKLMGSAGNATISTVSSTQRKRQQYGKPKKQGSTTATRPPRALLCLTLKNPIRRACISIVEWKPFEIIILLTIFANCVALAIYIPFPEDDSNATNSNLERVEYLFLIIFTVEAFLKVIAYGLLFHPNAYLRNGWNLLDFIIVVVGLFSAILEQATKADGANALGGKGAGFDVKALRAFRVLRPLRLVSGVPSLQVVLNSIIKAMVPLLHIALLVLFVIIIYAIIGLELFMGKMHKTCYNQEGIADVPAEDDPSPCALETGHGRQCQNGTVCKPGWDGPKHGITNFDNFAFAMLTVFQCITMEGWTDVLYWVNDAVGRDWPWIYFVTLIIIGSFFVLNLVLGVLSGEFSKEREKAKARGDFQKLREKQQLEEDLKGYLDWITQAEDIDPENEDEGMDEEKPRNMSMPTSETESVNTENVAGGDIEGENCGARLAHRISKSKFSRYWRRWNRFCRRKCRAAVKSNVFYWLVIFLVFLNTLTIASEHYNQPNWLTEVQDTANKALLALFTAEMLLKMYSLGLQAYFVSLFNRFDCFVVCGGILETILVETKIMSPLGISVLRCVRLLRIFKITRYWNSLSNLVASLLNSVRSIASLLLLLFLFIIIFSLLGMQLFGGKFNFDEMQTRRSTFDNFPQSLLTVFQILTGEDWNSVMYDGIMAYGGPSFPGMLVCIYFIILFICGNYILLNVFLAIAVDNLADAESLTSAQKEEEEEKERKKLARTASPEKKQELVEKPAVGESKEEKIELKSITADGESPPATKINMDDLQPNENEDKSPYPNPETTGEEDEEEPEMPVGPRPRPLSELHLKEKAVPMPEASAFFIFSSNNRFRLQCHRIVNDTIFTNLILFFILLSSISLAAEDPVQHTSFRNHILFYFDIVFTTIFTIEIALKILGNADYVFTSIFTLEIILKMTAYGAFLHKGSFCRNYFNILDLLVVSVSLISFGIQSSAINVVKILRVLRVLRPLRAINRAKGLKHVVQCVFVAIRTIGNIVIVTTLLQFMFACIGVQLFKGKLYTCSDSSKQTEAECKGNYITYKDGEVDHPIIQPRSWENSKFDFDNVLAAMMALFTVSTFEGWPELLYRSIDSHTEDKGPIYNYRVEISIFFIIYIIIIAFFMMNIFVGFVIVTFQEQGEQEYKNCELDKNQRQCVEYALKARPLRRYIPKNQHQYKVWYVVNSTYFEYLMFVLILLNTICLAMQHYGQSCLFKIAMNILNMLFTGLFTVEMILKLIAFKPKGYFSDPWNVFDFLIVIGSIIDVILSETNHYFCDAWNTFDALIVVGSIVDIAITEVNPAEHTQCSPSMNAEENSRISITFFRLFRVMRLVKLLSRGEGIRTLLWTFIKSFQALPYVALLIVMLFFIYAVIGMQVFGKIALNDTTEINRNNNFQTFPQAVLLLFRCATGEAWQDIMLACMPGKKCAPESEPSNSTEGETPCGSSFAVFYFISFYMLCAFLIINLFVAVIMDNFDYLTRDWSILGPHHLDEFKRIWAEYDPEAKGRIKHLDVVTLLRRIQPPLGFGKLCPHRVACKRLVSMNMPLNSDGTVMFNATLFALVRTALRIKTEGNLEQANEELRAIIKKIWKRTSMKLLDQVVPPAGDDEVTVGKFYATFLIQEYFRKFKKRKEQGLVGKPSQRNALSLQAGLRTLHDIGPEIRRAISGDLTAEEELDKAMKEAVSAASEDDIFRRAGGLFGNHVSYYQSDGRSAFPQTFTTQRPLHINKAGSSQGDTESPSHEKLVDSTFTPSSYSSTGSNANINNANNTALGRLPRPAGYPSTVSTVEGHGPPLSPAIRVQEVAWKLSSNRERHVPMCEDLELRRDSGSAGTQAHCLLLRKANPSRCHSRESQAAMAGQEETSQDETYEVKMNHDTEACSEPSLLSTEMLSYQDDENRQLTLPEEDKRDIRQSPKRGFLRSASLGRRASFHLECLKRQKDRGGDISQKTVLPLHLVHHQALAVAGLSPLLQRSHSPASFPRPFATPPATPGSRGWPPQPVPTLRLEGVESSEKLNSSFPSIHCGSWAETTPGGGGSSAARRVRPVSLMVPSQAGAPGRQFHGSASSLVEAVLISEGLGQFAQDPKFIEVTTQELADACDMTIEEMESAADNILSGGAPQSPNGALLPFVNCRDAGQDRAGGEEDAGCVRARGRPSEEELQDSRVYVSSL

A word on the IC50: it is the midpoint of a concentration-inhibition curve. Read a high IC50 as weaker potency. Turning to `CN(C)C(=O)C(CCN1CCC(O)(c2ccc(Cl)cc2)CC1)(c1ccccc1)c1ccccc1` [Loperamide], the IC50 in test [1] came to 526 nM; in test [2], 4090 nM.

These data come from PMC10527387, “The Potential Mechanisms behind Loperamide-Induced Cardiac Arrhythmias Associated with Human Abuse and Extreme Overdose” (Biomolecules, 2023).
